In brackets after ≈: the same amount, converted by molar mass. Several values for one entry are separate records, joined by “and”; a condition that tells them apart may be missing. Equal values may be shown once. Read-outs that look alike come from different tables or passages of the source. Marks after values point to notes of the source that are not given here.
What was measured:
α-amylase = conditions: cited from earlier work; for α-amylase IC50: mg/mL figure given in parentheses beside mM; for α-amylase IC50 / IC50: ref Jeong et al. (2012) [29]
α-glucosidase = conditions: cited from earlier work
[1] = cited from earlier work; for DPPH radical inhibition: concentrations 50–1000 µg/mL, ref Jeong et al. (2010) [24]
[2] = set-up: method as in Glišić et al. (2024) [4]; conditions: ref Glišić et al. (2024) [4]; cited from earlier work
[3] = cited from earlier work
[4] = set-up: method as in Glišić et al. (2024) [4]; conditions: ref Glišić et al. (2024) [4]; cited from earlier work; remark: listed apart in the source
[5] = TRC (total reducing capacity) ferric reducing power assay; conditions: L-ascorbic acid equivalents
[6] = set-up: method as in Glišić et al. (2024) [4]; conditions: ref Glišić et al. (2024) [4]; cited from earlier work; remark: listed apart in the source
[7] = test system: clinical isolates of both Gram-positive and Gram-negative bacteria; set-up: method as in Alves et al. (2013) [45]; conditions: ref Alves et al. (2013) [45]; cited from earlier work
[8] = test system: Enterococcus faecalis ATCC 29212; experiment: Broth microdilution MIC; format: cell-based; conditions: for Minimal Inhibitory Concentrations MICs: 24 h; for MIC: ATCC29212, 24 h, read-out: Minimal Inhibitory Concentrations MICs
[9] = biological target: T1, α-amylase from porcine pancreas (Sus scrofa, UniProt P00690); experiment: biochemical; conditions: for IC50: read-out: α-amilase IC50 (converted)
T1 construct: purchased Merck KGaA (Darmstadt, Germany) type VI-B (catalogue number not given); host or cells: porcine pancreas
T1 sequence (P00690 16-511): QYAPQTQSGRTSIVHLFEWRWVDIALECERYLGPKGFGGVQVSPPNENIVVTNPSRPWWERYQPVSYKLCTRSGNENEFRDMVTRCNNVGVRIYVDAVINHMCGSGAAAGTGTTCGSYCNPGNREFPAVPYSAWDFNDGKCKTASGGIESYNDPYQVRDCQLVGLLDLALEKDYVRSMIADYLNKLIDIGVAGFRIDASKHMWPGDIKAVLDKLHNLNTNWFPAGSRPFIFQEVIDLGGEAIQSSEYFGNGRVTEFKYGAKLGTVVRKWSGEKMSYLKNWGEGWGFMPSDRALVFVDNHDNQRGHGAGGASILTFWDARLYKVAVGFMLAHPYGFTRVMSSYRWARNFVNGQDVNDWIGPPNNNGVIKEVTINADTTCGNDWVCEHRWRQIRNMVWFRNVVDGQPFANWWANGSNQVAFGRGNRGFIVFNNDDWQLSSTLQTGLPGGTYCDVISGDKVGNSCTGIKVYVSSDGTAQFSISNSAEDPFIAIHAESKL

[10] = test system: Escherichia coli ATCC 8739; experiment: Broth microdilution MIC; format: cell-based; conditions: for MIC: ATCC8739, 24 h, read-out: Minimal Inhibitory Concentrations MICs
[11] = test system: Pseudomonas aeruginosa ATCC 9027; experiment: Broth microdilution MIC; format: cell-based; conditions: for MIC: ATCC9027, 24 h, read-out: Minimal Inhibitory Concentrations MICs
[12] = test system: Klebsiella pneumoniae NCIMB 9111; experiment: Broth microdilution MIC; format: cell-based; conditions: for MIC: NCIMB9111, 24 h, read-out: Minimal Inhibitory Concentrations MICs
[13] = biological target: acetylcholinesterase (AChE) from Electrophorus electricus (Electrophorus electricus, UniProt O42275); experiment: biochemical
[14] = FRAP ferric reducing power assay
[15] = biological target: α-glucosidase from bakers’ yeast (Saccharomyces cerevisiae, UniProt P53341); format: biochemical
[16] = test system: Salmonella abony NCTC 6017; experiment: Broth microdilution MIC; format: cell-based; conditions: for MIC: Salmonella enterica, NCTC6017, Salmonella abony, 24 h, read-out: Minimal Inhibitory Concentrations MICs
[17] = test system: Staphylococcus aureus ATCC 6538; experiment: Broth microdilution MIC; format: cell-based; conditions: extracts 62.5–1000, compounds 31.25–500 µg/mL tested; for MIC: ATCC6538, 24 h, read-out: Minimal Inhibitory Concentrations MICs
[18] = DPPH free radical scavenging assay
[19] = biological target: butyrylcholinesterase (BChE) from equine serum (Equus caballus, UniProt P81908); experiment: biochemical; format: biochemical
[20] = test system: methicillin-resistant Staphylococcus aureus (MRSA); conditions: ref Alves et al. (2013) [45]; cited from earlier work
[21] = ABTS free radical scavenging assay
[22] = test system: Bacillus subtilis ATCC 6633; experiment: Broth microdilution MIC; format: cell-based; conditions: for Minimal Inhibitory Concentrations MICs: 24 h; for MIC: ATCC6633, 24 h, read-out: Minimal Inhibitory Concentrations MICs
[23] = test system: Candida albicans ATCC 10231; experiment: Broth microdilution MIC; format: cell-based; conditions: for Minimal Inhibitory Concentrations MICs: 48 h; for MIC: ATCC10231, 48 h, read-out: Minimal Inhibitory Concentrations MICs
tyrosinase = conditions: cited from earlier work
tyrosinase from mushroom = format: biochemical
[24] = biological target: acetylcholinesterase (AChE); conditions: cited from earlier work
[25] = test system: three tested Gram-positive bacteria; set-up: method as in Lou et al. (2012) [44]; conditions: ref Lou et al. (2012) [44]; cited from earlier work
Gram-negative bacteria = test system: Gram-negative bacteria; set-up: method as in Lou et al. (2012) [44]; conditions: ref Lou et al. (2012) [44]; cited from earlier work
[26] = mg/mL figure given in parentheses beside mM, ref Jeong et al. (2012) [29]
[27] = isolated from medicinal rice (Oryza sativa L.), ref Mohanlal et al. (2011) [7]

Chain of acetylcholinesterase (AChE) from Electrophorus electricus (O42275 24-633 limits assumed): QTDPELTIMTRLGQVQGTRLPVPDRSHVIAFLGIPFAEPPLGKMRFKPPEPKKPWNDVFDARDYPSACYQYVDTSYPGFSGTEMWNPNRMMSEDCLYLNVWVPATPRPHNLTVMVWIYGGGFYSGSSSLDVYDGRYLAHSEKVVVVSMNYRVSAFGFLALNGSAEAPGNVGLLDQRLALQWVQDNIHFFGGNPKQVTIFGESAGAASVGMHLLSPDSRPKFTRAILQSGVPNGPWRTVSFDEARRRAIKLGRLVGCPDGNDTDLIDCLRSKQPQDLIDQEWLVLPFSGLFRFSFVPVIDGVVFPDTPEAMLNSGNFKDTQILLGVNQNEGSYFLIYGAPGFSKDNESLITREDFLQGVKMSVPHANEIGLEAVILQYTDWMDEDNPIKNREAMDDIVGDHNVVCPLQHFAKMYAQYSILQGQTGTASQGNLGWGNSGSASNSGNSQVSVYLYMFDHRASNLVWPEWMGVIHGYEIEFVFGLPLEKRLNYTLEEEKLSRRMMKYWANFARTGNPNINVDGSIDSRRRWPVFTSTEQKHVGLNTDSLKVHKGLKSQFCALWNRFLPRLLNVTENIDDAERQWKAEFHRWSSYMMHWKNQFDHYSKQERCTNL
Chain of butyrylcholinesterase (BChE) from equine serum (P81908 whole entry, looked up): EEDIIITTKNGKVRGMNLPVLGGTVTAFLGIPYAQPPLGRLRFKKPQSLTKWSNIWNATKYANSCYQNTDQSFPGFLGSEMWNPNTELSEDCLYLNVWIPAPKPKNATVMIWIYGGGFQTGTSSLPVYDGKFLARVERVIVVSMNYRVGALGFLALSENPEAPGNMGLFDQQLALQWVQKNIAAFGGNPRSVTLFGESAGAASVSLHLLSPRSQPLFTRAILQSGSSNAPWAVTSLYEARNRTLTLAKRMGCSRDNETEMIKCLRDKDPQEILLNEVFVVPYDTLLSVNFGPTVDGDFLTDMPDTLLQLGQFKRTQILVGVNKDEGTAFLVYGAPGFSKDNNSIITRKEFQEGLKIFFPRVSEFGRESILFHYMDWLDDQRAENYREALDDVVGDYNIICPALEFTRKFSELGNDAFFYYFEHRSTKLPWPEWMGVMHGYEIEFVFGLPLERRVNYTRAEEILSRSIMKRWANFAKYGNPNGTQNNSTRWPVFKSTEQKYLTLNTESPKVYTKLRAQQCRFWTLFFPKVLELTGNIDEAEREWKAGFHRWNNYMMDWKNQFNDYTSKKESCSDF
Chain of α-glucosidase from bakers’ yeast (P53341 whole entry, looked up): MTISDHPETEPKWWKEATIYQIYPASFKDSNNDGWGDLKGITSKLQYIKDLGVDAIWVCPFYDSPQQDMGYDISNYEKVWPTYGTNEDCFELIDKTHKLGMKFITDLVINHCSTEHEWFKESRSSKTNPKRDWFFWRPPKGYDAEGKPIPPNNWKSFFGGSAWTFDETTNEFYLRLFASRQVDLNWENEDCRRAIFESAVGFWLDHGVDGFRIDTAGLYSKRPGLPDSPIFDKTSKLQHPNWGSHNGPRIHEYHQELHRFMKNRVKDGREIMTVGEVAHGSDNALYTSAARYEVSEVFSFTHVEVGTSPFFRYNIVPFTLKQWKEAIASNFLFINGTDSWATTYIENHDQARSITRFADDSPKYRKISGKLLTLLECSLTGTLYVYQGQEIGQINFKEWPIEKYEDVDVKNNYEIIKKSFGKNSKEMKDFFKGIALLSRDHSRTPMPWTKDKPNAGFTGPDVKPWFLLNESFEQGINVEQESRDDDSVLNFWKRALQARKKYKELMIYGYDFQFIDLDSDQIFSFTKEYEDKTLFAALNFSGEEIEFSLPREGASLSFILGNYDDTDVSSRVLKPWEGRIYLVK

C[C@H]1O[C@H](O[C@H]2[C@H](O)[C@@H](O)[C@@H](O[C@H]3[C@H](O)[C@@H](O)C(O)O[C@@H]3CO)O[C@@H]2CO)[C@H](O)[C@@H](O)[C@@H]1N[C@H]1C=C(CO)[C@@H](O)[C@H](O)[C@H]1O (stereo partly drawn) [ACB, acarbose, reference compound]
α-amylase inhibition (α-amylase; at 1.5 mg/mL, ref [29]): 59.3%
α-glucosidase inhibition (α-glucosidase; at 0.44 mg/mL, ref [33]): 62%
α-glucosidase inhibition (α-glucosidase; at 1.5 mg/mL, ref [29]): 70.2%

Cc1cc(C(C)(C)C)c(O)c(C(C)(C)C)c1 [BHT, butylated hydroxytoluene]
DPPH radicals scavenged ([1]; at 0.2 mg/mL, ref [27]): 47.32%
DPPH radical inhibition [1]: 73.9–90.7%
DPPH IC50 ([1]; methanol extracts from unfermented straw, ref Đorđević et al. (2019) [12]): 50 µg/mL
DPPH IC50 ([1]; ref Yang et al. (2024) [20]): 150 µg/mL
ABTS IC50 [2]: 0.040 ± 0.002 ^e mg/mL
ABTS radicals scavenged ([3]; at 0.2 mg/mL, ref [27]): 50.32%
ABTS IC50 ([3]; ref Yang et al. (2024) [20]): 0.14 mg/mL
FRAP [4]: 0.41 µmol Fe^2+/g and 0.41 ± 0.03 ^c µmol Fe^2+/g and 0.41 ± 0.03 ^d µmol Fe^2+/g
TRC [5]: 615.02 ± 38.87 ^c mg L-AAE/g
DPPH IC50 [6]: 0.038 ± 0.001 ^e mg/mL

COc1cc(/C=C/C(=O)O)ccc1O [FA, ferulic acid]
MIC [7]: ≥ 1 mg/mL
Minimal Inhibitory Concentrations MICs [8]: 125 µg/mL
DPPH radical inhibition [1]: 84.3–92.3%
α-amylase IC50 (α-amylase): 1.84 mg/mL
IC50 (α-amylase): 9.5 mM
α-amilase IC50 [9]: 3.35 ± 0.85 ^b mg/mL
Minimal Inhibitory Concentrations MICs ([10]; 24 h): >500 µg/mL
Minimal Inhibitory Concentrations MICs ([11]; 24 h): >500 µg/mL
Minimal Inhibitory Concentrations MICs ([12]; 24 h): >500 µg/mL
AChE IC50 [13]: 4.10 ± 0.37 ^c mg/mL
FRAP [14]: 2.02 ± 0.04 ^a µmol Fe^2+/g
FRAP ([14]; listed as ferulic acid): 2.02 µmol Fe^2+/g
α-glucosidase IC50 [15]: 1.49 ± 0.18 ^a mg/mL
Minimal Inhibitory Concentrations MICs [16]: >500 µg/mL
Minimal Inhibitory Concentrations MICs ([17]; 24 h): 62.5 µg/mL
TRC [5]: 2467.90 ± 91.26 ^a mg L-AAE/g
TRC ([5]; listed as ferulic acid): 2467.90 mg L-AAE/g
DPPH IC50 [18]: 0.0068 ± 0.0001 ^c mg/mL
BChE IC50 [19]: 1.97 ± 0.08 ^c mg/mL
MIC [20]: 0.5 mg/mL (≈ 2570 µM)
ABTS IC50 [21]: 0.0034 ± 0.0001 ^d mg/mL
Minimal Inhibitory Concentrations MICs [22]: 62.5 µg/mL
α-glucosidase IC50 (α-glucosidase; [26]): 0.95 mg/mL
IC50 (α-glucosidase; ref Jeong et al. (2012) [29]): 4.9 mM
α-glucosidase IC50 (α-glucosidase; ref Nile and Park (2014) [34]): 0.2514 mg/mL
Minimal Inhibitory Concentrations MICs [23]: >500 µg/mL

O=C1O[C@H]([C@@H](O)CO)C(O)=C1O [L-AA, L-ascorbic acid]
DPPH IC50 ([1]; ref Barnawi et al. (2023) [28]): 2.51 µg/mL
DPPH IC50 ([1]; ref Dewi et al. (2021) [15]): 3.55 µg/mL
DPPH IC50 ([1]; ref Elemosho et al. (2021) [26]): 4630 µg/mL
ABTS IC50 [2]: 0.0316 ± 0.0003 ^e mg/mL
FRAP [4]: 1.618 ± 0.004 ^e µmol Fe^2+/g and 1.618 ± 0.004 ^b µmol Fe^2+/g
DPPH IC50 [6]: 0.0057 ± 0.0003 ^f mg/mL

COc1cc(-c2cc(=O)c3c(O)cc(O)cc3o2)cc(OC)c1O [TRN, 5,7,4′-trihydroxy-3′,5′-dimethoxyflavone]
tyrosinase IC50 (tyrosinase; ref [38]): 269.46 µg/mL
Minimal Inhibitory Concentrations MICs [8]: 31.25 µg/mL
MIC [8]: 31.2 µg/mL (≈ 94.6 µM)
DPPH IC50 [1, 27]: 90.39 µg/mL
IC50 [9]: 5.84 mM
MIC [10]: > 500 µg/mL
MIC [11]: > 500 µg/mL
MIC [12]: > 500 µg/mL
IC50 [13]: 8.72 mM
FRAP [14]: 0.34 ± 0.01 ^d µmol Fe^2+/g
MIC [16]: > 500 µg/mL
MIC [17]: 62.5 µg/mL (≈ 189 µM)
TRC [5]: 312.08 ± 12.44 ^d mg L-AAE/g
DPPH IC50 [18]: 1.71 ± 0.15 ^b mg/mL
IC50 [19]: 1.67 mM
ABTS IC50 [21]: 0.46 ± 0.01 ^a mg/mL
Minimal Inhibitory Concentrations MICs [22]: 31.25 µg/mL
MIC [22]: 31.2 µg/mL (≈ 94.6 µM)
Tyr IC50 (tyrosinase from mushroom): did not exhibit inhibitory activity within the tested concentration range
Minimal Inhibitory Concentrations MICs [23]: 250 µg/mL
MIC [23]: 250 µg/mL (≈ 757 µM)

COc1ccc2cc3[n+](cc2c1OC)CCc1cc2c(cc1-3)OCO2 [berberine, reference compound]
AChE IC50 ([24]; ref Sim et al. (2014) [39]): 1.5 µg/mL

O=C(O)/C=C/c1ccc(O)cc1 [p-CA, p-coumaric acid]
MIC [7]: ≥ 1 mg/mL
Minimal Inhibitory Concentrations MICs [8]: 31.25 µg/mL
MIC [8]: 31.2 µg/mL (≈ 190 µM)
DPPH radical inhibition [1]: 10.3–26.9%
α-amylase IC50 (α-amylase): > 4.92 mg/mL
IC50 (α-amylase): > 30 mM
IC50 [9]: 167 mM
MIC [10]: > 500 µg/mL
MIC [11]: > 500 µg/mL
MIC [12]: > 500 µg/mL
IC50 [13]: 63.3 mM
FRAP [14]: 0.92 ± 0.02 ^c µmol Fe^2+/g
MIC [16]: > 500 µg/mL
MIC [25]: 20 µg/mL (≈ 122 µM)
MIC [17]: 62.5 µg/mL (≈ 381 µM)
MIC (Gram-negative bacteria): 10 to 80 µg/mL
TRC [5]: 1810.89 ± 116.14 ^b mg L-AAE/g
TRC ([5]; listed as p-Coumaric acid): 1810.89 mg L-AAE/g
DPPH IC50 [18]: 2.96 ± 0.16 ^a mg/mL
ABTS IC50 [21]: 0.0256 ± 0.0012 ^c mg/mL
Minimal Inhibitory Concentrations MICs [22]: 31.25 µg/mL
MIC [22]: 31.2 µg/mL (≈ 190 µM)
α-glucosidase IC50 (α-glucosidase; [26]): > 4.92 mg/mL
IC50 (α-glucosidase; ref Jeong et al. (2012) [29]): > 30 mM
α-glucosidase IC50 (α-glucosidase; ref Nile and Park (2014) [34]): 0.0908 mg/mL
Minimal Inhibitory Concentrations MICs [23]: 250 µg/mL
MIC [23]: 250 µg/mL (≈ 1520 µM)

O=c1c(O)c(-c2ccc(O)c(O)c2)oc2cc(O)cc(O)c12 [quercetin]
DPPH IC50 [1, 27]: 42.98 µg/mL

COc1cc(C(O)C(CO)Oc2c(OC)cc(-c3cc(=O)c4c(O)cc(O)cc4o3)cc2OC)ccc1O (stereo not drawn) [salcolin A, tricin 4′-O-(threo-β-guaiacylglyceryl)ether]
DPPH IC50 [1, 27]: 208.1 µg/mL

COc1cc([C@H](O)[C@H](CO)Oc2c(OC)cc(-c3cc(=O)c4c(O)cc(O)cc4o3)cc2OC)ccc1O [salcolin B, tricin 4′-O-(erythro-β-guaiacylglyceryl)ether]
DPPH IC50 [1, 27]: 352.04 µg/mL

O=C(O)CC1C(=O)Nc2cccc(O)c21 (stereo not drawn) [tasselin A, 4-hydroxy-1-oxindole-3-acetic acid]
IC50 (tyrosinase; ref Wille and Berhow (2011) [37]): 750 µM

O=c1cc(-c2cc(O)c(O)c(O)c2)oc2cc(O)cc(O)c12 [tricetin]
AChE IC50 ([24]; ref Kuppusamy et al. (2017) [40]): 18.28 µg/mL

From article PMC11820700, “Antioxidant, Enzyme-Inhibitory and Antimicrobial Activity of Underutilized Wheat and Maize Crop Residues” (Plants, 2025)
